From patent publication US9637462B2, “Process for the preparation of N-iodoamides” (TECHNION RESEARCH & DEVELOPMENT FOUNDATION LIMITED, priority 2013, dated 2017)

What was measured:
[1] = Distribution coefficient (K) of amides between water-immiscible organic solvent and water (recovery of amides from aqueous solution); format: physicochemical; conditions: 25° C., stirred 0.5 h
Experimental: A mixture of amide (weight of amide (W): 0.2-0.5 g), water (20-100 mL) and water immiscible organic solvent (the same volume as water) was stirred at 25° C. for 0.5 h. The organic layer was thoroughly separated, dried over Na2SO4, filtered and concentrated in vacuo to recover the amide. Distribution coefficient K was calculated according to the formula K=Wo/W−Wo, where Wo is weight of the recovered amide in g. Distribution coefficients of 3,5,5-trimethylhydantoin (3,5,5-TMH), 4,4-dimethyloxazolidin-2-one (DMO), 5,5-dimethylhydantoin (DMH) and succinimide in hexane, benzene, CCl4 and DCM are shown in Table 3.1.

[2] = shake-flask, equal volumes, gravimetric recovery from organic layer; conditions: 25 °C
[3] = PhH (benzene) / water (equal volumes)

Row | SMILES | Distribution coefficient (K) ([1]; CCl4 / water (equal volumes)) | Distribution coefficient (K) ([1]; DCM / water (equal volumes)) | Distribution coefficient (K) [1, 3] | Distribution coefficient (K) ([1]; hexane / water (equal volumes)) | partition coefficient dichloromethane / water [2] | melting point
1 | CN1C(=O)NC(C)(C)C1=O [3,5,5-TMH, 3,5,5-trimethylhydantoin] | 0.1≦ | 1.6 | 0.1≦ | 0.1≦ | 1.6 mass ratio (equal phase volumes) | 
2 | CN1C(=O)N(I)C(C)(C)C1=O [1-ITMH, 1-iodo-3,5,5-trimethylhydantoin] |  |  |  |  |  | 198 to 199 °C (dec.)
3 | CN1C(=O)N(I)C(=O)C1(C)C [3-ITMH, 3-iodo-1,5,5-trimethylhydantoin] |  |  |  |  |  | 213 to 214 °C (dec.)
4 | CC1(C)NC(=O)NC1=O [DMH, 5,5-dimethylhydantoin, reference compound] | 0.1≦ | 0.1≦ | 0.1≦ | 0.1≦ |  | 
5 | CC1(C)COC(=O)N1 [DMO, 4,4-dimethyloxazolidin-2-one] | 0.1≦ | 0.5 | 0.1≦ | 0.1≦ | 0.5 mass ratio (equal phase volumes) | 
6 | O=C1CCC(=O)N1 [succinimide, reference compound] | 0.1≦ | 0.1≦ | 0.1≦ | 0.1≦ |  | 
7 | CC1(C)COC(=O)N1I |  |  |  |  |  | 148 to 149 °C (dec.)
